Assays:
[1] = test system: carrageenan-induced paw edema; test: Carrageenan-induced paw edema model; format: in vivo; conditions: mice, dose 10 mg/kg
Protocol: The anti-inflammatory activity of MAK01 was evaluated through a carrageenan-induced paw edema model. The mice, with weights ranging from 25 to 30 g, were separated into five distinct groups, these being Vehicle Group 1, Aspirin Group 2, and different concentrations of MAK01 in Groups 3–5. Each of these groups comprised five mice. The negative control group in the experiment received a specific solution comprising normal saline, DMSO, and Tween-80. The mixture contained 94% normal saline, 5% DMSO, and 1% Tween-80, delivered at a concentration of 10 mL per kg. In contrast, the positive control group in the assay received the comparator aspirin at a precise dose of 10 mg/kg. The test samples were administered at doses of 10 mg/kg, 20 mg/kg, and 30 mg/kg, given intra-peritoneally. After 30 min, a 2% carrageenan suspension (0.2 mL) was administered to each mouse in every group via a subcutaneous injection in the hind paw. In the experiment, a plethysmometer was used to precisely measure inflammation and edema. These measurements were taken at multiple time points both prior to and following the carrageenan administration. Specifically, the readings were recorded at 1, 2, 3, 4, and 5 h intervals to monitor the progress of the inflammatory response and paw swelling. These obtained results were then compared against the outcomes from the negative control group. The gathered data from the experiment, relating to the impact of the newly synthesized compounds on paw edema, were carefully processed to derive the percentage of edema inhibition. Using the below equation, the percent inhibition was calculated. % Inhibition=Ce−Te/Ce×100
In the formula, ‘Ce’ refers to the control group paw edema volume, while ‘Te’ denotes test groups’ paw edema volume.

mice = test: Hot plate antinociceptive test; format: in vivo; conditions: dose 5 mg/kg
5-LOX = biological target: T1, 5-LOX (Homo sapiens, UniProt P09917); test: 5-LOX inhibitory assay; format: biochemical; conditions: read-out: 5-LOX percent inhibition
T1 construct: purchased Cayman Chemical Batch No.: A3457
T1 sequence (P09917 1-674): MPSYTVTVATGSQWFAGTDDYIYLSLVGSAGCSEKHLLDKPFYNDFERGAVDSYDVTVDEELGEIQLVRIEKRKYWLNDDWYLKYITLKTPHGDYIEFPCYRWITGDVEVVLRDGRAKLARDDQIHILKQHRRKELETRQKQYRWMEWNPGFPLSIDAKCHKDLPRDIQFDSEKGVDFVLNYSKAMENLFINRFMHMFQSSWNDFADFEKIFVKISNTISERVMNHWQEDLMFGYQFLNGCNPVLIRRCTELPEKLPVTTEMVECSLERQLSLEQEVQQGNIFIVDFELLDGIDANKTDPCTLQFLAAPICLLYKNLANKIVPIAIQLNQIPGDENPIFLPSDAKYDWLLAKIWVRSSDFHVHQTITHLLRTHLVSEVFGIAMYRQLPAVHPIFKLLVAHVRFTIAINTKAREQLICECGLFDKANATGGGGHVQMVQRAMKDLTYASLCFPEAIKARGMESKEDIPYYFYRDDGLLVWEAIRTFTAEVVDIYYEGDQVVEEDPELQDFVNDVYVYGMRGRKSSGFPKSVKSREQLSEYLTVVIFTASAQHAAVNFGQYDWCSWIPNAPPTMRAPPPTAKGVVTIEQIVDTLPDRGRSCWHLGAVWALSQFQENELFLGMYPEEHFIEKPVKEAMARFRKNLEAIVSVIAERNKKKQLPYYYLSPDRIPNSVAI
Protocol: The activity of MAK01 against the 5-LOX enzyme was investigated using a human recombinant form of 5-LOX [47]. To begin the 5-LOX activity assay, a 10,000 U/mL solution of 5-LOX was prepared in a phosphate buffer with a pH of 6.3. A range of concentrations of the test compounds in the same buffer were prepared for assay. As a substrate for 5-LOX, linoleic acid (80 mM) was diluted with ethyl alcohol and used in the assay. The experiment involved mixing the same amount of both the enzyme solution and the test sample, such as mixing 0.25 mL 5-LOX with 0.25 mL of the compound, both dissolved in buffer. The mixing was followed by incubation at 25 °C for 5 to 10 min. Subsequently, 0.10 mL of the linoleic acid solution was added and allowed to incubate for another 5 min. The absorbance was measured using a UV–visible spectrophotometer at a wavelength of 234 nm, and the percent inhibition was calculated based on the absorbance readings. The same procedure was repeated for different concentrations of the test samples. Zileuton, as a reference drug, was used in comparisons. Using the following formula, the percent inhibition for each sample was calculated: % Inhibition=Abs. of Control−Abs. of Sample/Abs. of Control×100

CC(=O)Oc1ccccc1C(=O)O [Aspirin, aspirin, reference compound]
Paw Edema Inhibition in Percent ([1]; 1 h): 47.46 ± 0.80% | Paw Edema Inhibition in Percent ([1]; 2 h): 54.42 ± 1.10% | Paw Edema Inhibition in Percent ([1]; 3 h): 55.23 ± 0.73% | Paw Edema Inhibition in Percent ([1]; 4 h): 56.22 ± 1.34% | Paw Edema Inhibition in Percent ([1]; 5 h): 57.57 ± 1.23%

CN1CC[C@]23c4c5ccc(O)c4O[C@H]2[C@@H](O)C=C[C@H]3[C@H]1C5 [Morphine, morphine, reference compound]
Latency Time (Seconds) on Hot Plate (mice; 30 min): 13.83 ± 0.63 s | Latency Time (Seconds) on Hot Plate (mice; 60 min): 13.52 ± 0.23 s | Latency Time (Seconds) on Hot Plate (mice; 90 min): 13.29 ± 0.78 s | Latency Time (Seconds) on Hot Plate (mice; 120 min): 12.92 ± 0.56 s | Latency Time (Seconds) on Hot Plate (mice; 150 min): 12.59 ± 0.41 s

CC(c1cc2ccccc2s1)N(O)C(N)=O (stereo not drawn) [Zileuton, zileuton, reference compound]
inhibition at 62.5 µg/mL (5-LOX): 74% | inhibition at 125 µg/mL (5-LOX): 78% | inhibition at 250 µg/mL (5-LOX): 81% | inhibition at 500 µg/mL (5-LOX): 85% | inhibition at 1000 µg/mL (5-LOX): 94%
